10 compounds from patent US11661422B2, “Tricyclic urea compounds as JAK2 V617F inhibitors” (Incyte Corporation, priority 2020, dated 2023) can be followed below.

pIC50: −log10 of the molar value. Where a name gives a salt, the structure may show the parent alone.

For assay [1], the target named is pseudo-kinase domain (JH2, amino-acids 536-812) of human V617F mutant JAK2 (Homo sapiens (Human), UniProt O60674, F794H/V617F/W659A/W777A). Briefly: JAK2 LanthaScreen JH2-V617F Binding Assay. As to conditions: JAK2 JH2-V617F 0.26 nM, 50 nM fluorescent tracer, 1 hour at 25° C.; read-out: JH2 BIND V617F IC50. On the procedure:
The assay was conducted in black 384-well polystyrene plates in a final reaction volume of 20 μL. […] Non-specific binding was accessed in the presence of 2 mM ATP. After incubation for 1 hour at 25° C., LanthaScreen signals were read on a PHERAstar FS plate reader (BMG LABTECH). Data was analyzed with IDBS XLfit and GraphPad Prism 5.0 software using a four parameter dose response curve to determine IC50 for each compound.

Assay [2] concerns the target catalytic domain (JH1, amino acids 808-1132) of human JAK2 (Homo sapiens (Human), UniProt O60674). Put plainly: JAK2 HTRF Enzyme Activity Assay. Format: biochemical. As to conditions: JAK2 0.015 nM, ATP (30 μM or 1 mM), 60 minutes at 25° C. On the procedure: Example D. JAK2 HTRF Enzyme Activity Assay
JAK2 enzyme activity assays utilize catalytic domain (JH1, amino acids 808-1132) of human JAK2 expressed as N-terminal His-tagged protein in a baculovirus expression system (BPS Bioscience, Catalog #40450). The assays was conducted in black 384-well polystyrene plates in a final reaction volume of 20 μL. JAK2 (0.015 nM) was incubated with compounds (100 nL serially diluted in DMSO) in the presence of ATP (30 μM or 1 mM) and 500 nM Biotin-labeled […] (SEQ ID NO.: 1) peptide (BioSource International, custom synthesis) in assay buffer (50 mM Tris, pH=7.5, 10 mM MgCl2, 0.01% Brij-35, 0.1% BSA, 1 mM EGTA, 5% Glycerol and 5 mM DTT) for 60 minutes at 25° C. The reactions were stopped by the addition of 10 μL of detection buffer (50 mM Tris, pH 7.8, 0.5 mg/mL BSA, 150 mM NaCl), supplemented with EDTA, LANCE Eu-W1024 anti-phosphotyrosine (PY20), (PerkinElmer, Catalog #AD0067) and Streptavidin SureLight APC (PerkinElmer Catalog #CR130-100), for a final concentration of 15 mM, 1.5 nM and 75 nM, respectively. HTRF signals were read after 30 minutes incubation at room temperature on a PHERAstar FS plate reader (BMG LABTECH). Data was analyzed with IDBS XLfit and GraphPad Prism 5.0 software using a four parameter dose response curve to determine IC50 for each compound.

Assay [3] concerns the target pseudo-kinase domain (JH2, amino-acids 536-812) of human Wild Type JAK2 (Homo sapiens (Human), UniProt O60674, F794H/W659A/W777A). Briefly: JAK2 LanthaScreen JH2-WT Binding Assay. As to conditions: JAK2 JH2-WT 0.145 nM, 50 nM fluorescent tracer, 1 hour at 25° C.; read-out: JH2 BIND WT IC50. As for the experimental part: Example B. JAK2 LanthaScreen JH2-WT Binding Assay
(§1) The assay was conducted in black 384-well polystyrene plates in a final reaction volume of 20 μL. JAK2 JH2-WT (0.145 nM) was incubated with compounds (100 nL serially diluted in DMSO) in the presence of 50 nM Fluorescent JAK2-JH2 Tracer (MedChem Express Catalog #HY-102055) and 0.25 nM Streptavidin-Tb cryptate (Cisbio Part #610SATLB) in assay buffer (50 mM Tris, pH=7.5, 10 mM MgCl2, 0.01% Brij-35, 0.1% BSA, 1 mM EGTA, 5% Glycerol and 5 mM DTT). Non-specific binding was accessed in the presence of 2 mM ATP. After incubation for 1 hour at 25° C., LanthaScreen signals were read on a PHERAstar FS plate reader (BMG LABTECH). Data was analyzed with IDBS XLfit and GraphPad Prism 5.0 software using a four parameter dose response curve to determine IC50 for each compound.

In assay [4] the target is catalytic domain (JH1, amino acids 826-1132) of human JAK2 (Homo sapiens (Human), UniProt O60674). Briefly: JAK2 LanthaScreen JH1 Binding Assay. As to conditions: JAK2 JH1 1.5 nM, 50 nM fluorescent tracer, 2 hours at 25° C.; read-out: JH1 BIND IC50. As for the experimental part: Example A. JAK2 LanthaScreen JH1 Binding Assay
catalytic domain (JH1, amino acids 826-1132) of human JAK2, sequence (O60674 826-1132): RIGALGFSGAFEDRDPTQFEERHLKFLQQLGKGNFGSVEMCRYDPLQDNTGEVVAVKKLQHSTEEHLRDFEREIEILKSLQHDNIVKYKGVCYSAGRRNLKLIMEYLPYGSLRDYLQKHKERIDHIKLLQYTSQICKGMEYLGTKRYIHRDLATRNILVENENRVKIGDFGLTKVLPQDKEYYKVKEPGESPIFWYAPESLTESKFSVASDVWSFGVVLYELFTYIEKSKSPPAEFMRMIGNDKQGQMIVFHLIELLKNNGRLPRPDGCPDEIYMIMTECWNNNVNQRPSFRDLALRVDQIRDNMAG
as §1, with “JAK2 JH1 binding assay utilizes catalytic domain (JH1, amino acids 826-1132) of human JAK2 expressed as N-terminal FLAG-tagged, biotinylated protein in a baculovirus expression system (Carna Biosciences, Product #08-445-20N). The” for “The”, “JH1 (1.5” for “JH2-WT (0.145”, “JAK2-JH1” for “JAK2-JH2”, “Tracer” for “Tracer (MedChem Express Catalog #HY-102055)”, “0.5” for “0.25”, “2 hours” for “1 hour”
In general terms: TR-FRET usually uses a lanthanide donor and a delayed reading to cut background.

catalytic domain (JH1, amino acids 808-1132) of human JAK2, sequence (O60674 808-1132): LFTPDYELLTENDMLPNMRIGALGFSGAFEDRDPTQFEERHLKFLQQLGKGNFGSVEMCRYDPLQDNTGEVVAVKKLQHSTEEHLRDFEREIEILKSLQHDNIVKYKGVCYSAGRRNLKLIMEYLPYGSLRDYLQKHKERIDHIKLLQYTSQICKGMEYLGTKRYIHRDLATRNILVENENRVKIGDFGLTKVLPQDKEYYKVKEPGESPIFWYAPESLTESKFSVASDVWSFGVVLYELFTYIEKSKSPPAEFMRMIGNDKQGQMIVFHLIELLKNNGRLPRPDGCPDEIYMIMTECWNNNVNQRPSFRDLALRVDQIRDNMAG
pseudo-kinase domain (JH2, amino-acids 536-812) of human V617F mutant JAK2, sequence (O60674 536-812 V617F/W659A/W777A/F794H): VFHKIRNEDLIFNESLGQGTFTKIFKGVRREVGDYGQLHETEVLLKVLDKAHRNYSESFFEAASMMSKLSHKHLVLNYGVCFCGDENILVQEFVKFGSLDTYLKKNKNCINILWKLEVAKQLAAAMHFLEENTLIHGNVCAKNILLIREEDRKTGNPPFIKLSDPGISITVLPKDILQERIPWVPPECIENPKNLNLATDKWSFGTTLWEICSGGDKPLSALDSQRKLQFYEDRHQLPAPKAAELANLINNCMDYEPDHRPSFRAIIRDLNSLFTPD
pseudo-kinase domain (JH2, amino-acids 536-812) of human Wild Type JAK2, sequence (O60674 536-812 W659A/W777A/F794H): as the sequence (O60674 536-812 V617F/W659A/W777A/F794H) above, with F82V counted along it

With `CNC(=O)c1ccc(N2Cc3c(cnc4[nH]c(-c5ccc(CN6CCC(S(C)(=O)=O)CC6)cc5)c(-c5ccc(OC)cc5)c34)N(C)C2=O)cc1` [Example 12, 4-(9-(4-methoxyphenyl)-4-methyl-8-(4-((4-(methylsulfonyl)piperidin-1-yl)methyl)phenyl)-3-oxo-1,3,4,7-tetrahydro-2H-pyrrolo[3′,2′:5,6]pyrido[3,4-d]pyrimidin-2-yl)-N-methylbenzamide, trifluroacetate], the pIC50 in assay [1] was not below 7.00; in assay [2] it was 5.60 to 6.00; in assay [3] it was not below 7.00; in assay [4] it was 5.60 to 6.00.

On to `CN1C(=O)N(C(C)(C)C)Cc2c1cnc1[nH]c(-c3ccc(CN4CCC(S(C)(=O)=O)CC4)cc3)c(-c3ccc(C(=O)NCC4(C#N)CC4)cc3)c21` [Example 14, 4-(2-(tert-Butyl)-4-methyl-8-(4-((4-(methylsulfonyl)piperidin-1-yl)methyl)phenyl)-3-oxo-2,3,4,7-tetrahydro-1H-pyrrolo[3′,2′:5,6]pyrido[3,4-d]pyrimidin-9-yl)-N-((1-cyanocyclopropyl)methyl)benzamide Trifluoroacetic Acid], for which the pIC50 in assay [1], in assay [2], in assay [3] and in assay [4] was not below 7.00 throughout.

Take `COC(=O)c1c(-c2ccc(CN3CCC(S(C)(=O)=O)CC3)cc2)[nH]c2ncc3c(c12)CN(c1ccc(C(=O)O)cc1)C(=O)N3C` [Example 15, 4-(9-(Methoxycarbonyl)-4-methyl-8-(4-((4-(methylsulfonyl)piperidin-1-yl)methyl)phenyl)-3-oxo-1,3,4,7-tetrahydro-2H-pyrrolo[3′,2′:5,6]pyrido[3,4-d]pyrimidin-2-yl)benzoic acid Trifluoroacetic Acid Salt]: the negative-log IC50 (pIC50) in assay [1] is 6.30 to 7.00; in assay [2] it was less than 5.60; in assay [3] it was 6.30 to 7.00; in assay [4], less than 5.60.

For `CC(=O)NCc1ccc(-c2c(-c3ccc(CN4CCC(S(C)(=O)=O)CC4)cc3)[nH]c3ncc4c(c23)CN(C(C)(C)C)C(=O)N4C)cc1` [Example 16, N-(4-(2-(tert-Butyl)-4-methyl-8-(4-((4-(methylsulfonyl)piperidin-1-yl)methyl)phenyl)-3-oxo-2,3,4,7-tetrahydro-1H-pyrrolo[3′,2′:5,6]pyrido[3,4-d]pyrimidin-9-yl)benzyl)acetamide], the negative logarithm of the IC50 (pIC50) in assay [1], in assay [2], in assay [3] and in assay [4] was not below 7.00 each time.

Regarding `CNS(=O)(=O)c1ccc(-c2c(-c3ccc(CN4CCC(S(C)(=O)=O)CC4)cc3)[nH]c3ncc4c(c23)CN(C(C)(C)C)C(=O)N4C)cc1` [Example 17, 4-(2-(tert-Butyl)-4-methyl-8-(4-((4-(methylsulfonyl)piperidin-1-yl)methyl)phenyl)-3-oxo-2,3,4,7-tetrahydro-1H-pyrrolo[3′,2′:5,6]pyrido[3,4-d]pyrimidin-9-yl)-N-methylbenzenesulfonamide, trifluoroacetic acid salt], the pIC50 in assay [1], in assay [2], in assay [3] and in assay [4] was not below 7.00 throughout.

In the case of `CC(=O)N1CCN(c2ccc(-c3c(-c4ccc(CN5CCC(S(C)(=O)=O)CC5)cc4)[nH]c4ncc5c(c34)CN(C(C)(C)C)C(=O)N5C)cc2)CC1` [Example 18, 9-(4-(4-Acetylpiperazin-1-yl)phenyl)-2-(tert-butyl)-4-methyl-8-(4-((4-(methylsulfonyl)piperidin-1-yl)methyl)phenyl)-1,2,4,7-tetrahydro-3H-pyrrolo[3′,2′:5,6]pyrido[3,4-d]pyrimidin-3-one, trifluoroacetic acid salt], the pIC50 in assay [1], in assay [2], in assay [3] and in assay [4] was not below 7.00 in each case.

Regarding `CC(=O)N1CC=C(c2c(-c3ccc(CN4CCC(S(C)(=O)=O)CC4)cc3)[nH]c3ncc4c(c23)CN(c2ccc(C(=O)O)cc2)C(=O)N4C)CC1` [Example 20, 4-(9-(1-Acetyl-1,2,3,6-tetrahydropyridin-4-yl)-4-methyl-8-(4-((4-(methylsulfonyl)piperidin-1-yl)methyl)phenyl)-3-oxo-1,3,4,7-tetrahydro-2H-pyrrolo[3′,2′:5,6]pyrido[3,4-d]pyrimidin-2-yl)benzoic acid Trifluoroacetic Acid Salt], the negative logarithm of the IC50 (pIC50) was not below 7.00 in assay [1], less than 5.60 in assay [2], not below 7.00 in assay [3] and less than 5.60 in assay [4].

As to `CN1C(=O)N(c2ccc(C(=O)O)cc2)Cc2c1cnc1[nH]c(-c3ccc(CN4CCC(S(C)(=O)=O)CC4)cc3)c(-c3ccc(C4(N)CC4)cc3)c21` [Example 21, 4-(9-(4-(1-Aminocyclopropyl)phenyl)-4-methyl-8-(4-((4-(methylsulfonyl)piperidin-1-yl)methyl)phenyl)-3-oxo-1,3,4,7-tetrahydro-2H-pyrrolo[3′,2′:5,6]pyrido[3,4-d]pyrimidin-2-yl)benzoic acid trifluoroacetic acid salt (1:2)], the pIC50 in assay [1] was not below 7.00; in assay [2] it was less than 5.60; in assay [3], not below 7.00; in assay [4], 5.60 to 6.00.

On to `CN1C(=O)N(c2ccc(C(=O)O)cc2)Cc2c1cnc1[nH]c(-c3ccc(CN4CCC(S(C)(=O)=O)CC4)cc3)c(-c3ccn(C)c3)c21` [Example 22, 4-(4-Methyl-9-(1-methyl-1H-pyrrol-3-yl)-8-(4-((4-(methylsulfonyl)piperidin-1-yl)methyl)phenyl)-3-oxo-1,3,4,7-tetrahydro-2H-pyrrolo[3′,2′:5,6]pyrido[3,4-d]pyrimidin-2-yl)benzoic acid trifluoroacetic acid salt], for which the negative-log IC50 (pIC50) is not below 7.00 in assay [1], 5.60 to 6.00 in assay [2], not below 7.00 in assay [3] and 5.60 to 6.00 in assay [4].

For `CN1C(=O)N(c2ccc(C(=O)O)cc2)Cc2c1cnc1[nH]c(-c3ccc(CN4CCC(S(C)(=O)=O)CC4)cc3)c(C3CC3)c21` [Example 23, 4-(9-Cyclopropyl-4-methyl-8-(4-((4-(methylsulfonyl)piperidin-1-yl)methyl)phenyl)-3-oxo-1,3,4,7-tetrahydro-2H-pyrrolo[3′,2′:5,6]pyrido[3,4-d]pyrimidin-2-yl)benzoic acid, trifluoroacetic acid salt], the negative-log IC50 (pIC50) is not below 7.00 in assay [1], less than 5.60 in assay [2], not below 7.00 in assay [3] and less than 5.60 in assay [4].

The pIC50 is the IC50 on a negative log10 scale, so that one unit is a factor of ten.
